Test system: Ascaridia galli (L3) and Oesophagostumum dentatum (L3 and L4) larvae
Experiment: In vitro anthelmintic larval test, minimum effective concentration by microscopic examination
Assay type: cell-based
Details: activity against one or both of the nematodes (A. galli L3; O. dentatum L3, L4), 96-well plates, 20 larvae per well, vs DMSO-control, read-out: minimum effective concentration (MEC)
Description: C: Biological Examples Efficacy Against Ascaridia galli and Oesophagostomum dentatum
Anthelmintic effects of compounds of this invention (numbers refer to compound numbers in Table I) were tested in vitro using gut-welling larval stages of two parasitic nematode species: Ascaridia galli (intestinal roundworm of chicken), larval stage 3 (“L3”); and Oesophagostumum dentatum (nodular worm of swine), larval stages 3 and 4 (respectively “L3” and “L4”). When conducting these experiments, DMSO-solutions of various concentrations of compounds of this invention were prepared and incubated in 96-well microtiter plates. The parasites were then distributed at 20 larvae per well. The anthelmintic effects were classified by microscopic examination. The microscopic examination included assessing mortality, damage, motility, progression of development, and neutral red uptake by the larvae in comparison to a DMSO-control.

SMILES	minimal effective concentration
Cc1ccc(/C=C/CN2CCC3(CC2)CN(C(=O)c2ccnc(Cl)c2)c2ccc(Sc4ccc(F)cc4)cc23)cc1C [Compound 14, (2-chloro-4-pyridyl)-[1′-[(E)-3-(3,4-dimethylphenyl)allyl]-5-(4-fluorophenyl)sulfanyl-spiro[indoline-3,4′-piperidine]-1-yl]methanone]	≤ 50 µM
Cc1cc(C(=O)N2CC3(CCN(C/C=C/c4ccc(C)c(C)c4)CC3)c3cc(Sc4ccc(F)cc4)ccc32)cc(Cl)n1 [Compound 15, (2-chloro-6-methyl-4-pyridyl)-[1′-[(E)-3-(3,4-dimethylphenyl)allyl]-5-(4-fluorophenyl)sulfanyl-spiro[indoline-3,4′-piperidine]-1-yl]methanone]	≤ 50 µM
Cc1cc(C(=O)N2CC3(CCN(C/C=C/c4ccc(C)c(C)c4)CC3)c3cc(Sc4ccc(F)cc4)ccc32)ccn1 [Compound 16, [1′-[(E)-3-(3,4-dimethylphenyl)allyl]-5-(4-fluorophenyl)sulfanyl-spiro[indoline-3,4′-piperidine]-1-yl]-(2-methyl-4-pyridyl)methanone]	≤ 50 µM
Cc1ccc(/C=C/CN2CCC3(CC2)CN(C(=O)c2ccnc(Cl)c2)c2ccc(Sc4ccc(F)cc4)cc23)cc1 [Compound 17, (2-chloro-4-pyridyl)-[5-(4-fluorophenyl)sulfanyl-1′-[(E)-3-(p-tolyl)allyl]spiro[indoline-3,4′-piperidine]-1-yl]methanone]	≤ 50 µM
Cc1ccc(/C=C/CN2CCC3(CC2)CN(C(=O)c2cc(C)nc(Cl)c2)c2ccc(Sc4ccc(F)cc4)cc23)cc1 [Compound 18, (2-chloro-6-methyl-4-pyridyl)-[5-(4-fluorophenyl)sulfanyl-1′-[(E)-3-(p-tolyl)allyl]spiro[indoline-3,4′-piperidine]-1-yl]methanone]	≤ 50 µM
Cc1ccc(/C=C/CN2CCC3(CC2)CN(C(=O)c2ccnc(C)c2)c2ccc(Sc4ccc(F)cc4)cc23)cc1 [Compound 19, [5-(4-fluorophenyl)sulfanyl-1′-[(E)-3-(p-tolyl)allyl]spiro[indoline-3,4′-piperidine]-1-yl]-(2-methyl-4-pyridyl)methanone]	≤ 50 µM
Cc1ccc(/C=C/CN2CCC3(CC2)CN(C(=O)c2ccnc(Cl)c2)c2ccc(Sc4ccc(F)cc4)cc23)c(C)c1 [Compound 20, (2-chloro-4-pyridyl)-[1′-[(E)-3-(2,4-dimethylphenyl)allyl]-5-(4-fluorophenyl)sulfanyl-spiro[indoline-3,4′-piperidine]-1-yl]methanone]	≤ 50 µM
Cc1ccc(/C=C/CN2CCC3(CC2)CN(C(=O)c2cc(C)nc(Cl)c2)c2ccc(Sc4ccc(F)cc4)cc23)c(C)c1 [Compound 21, (2-chloro-6-methyl-4-pyridyl)-[1′-[(E)-3-(2,4-dimethylphenyl)allyl]-5-(4-fluorophenyl)sulfanyl-spiro[indoline-3,4′-piperidine]-1-yl]methanone]	≤ 50 µM
Cc1ccc(/C=C/CN2CCC3(CC2)CN(C(=O)c2ccnc(C)c2)c2ccc(Sc4ccc(F)cc4)cc23)c(C)c1 [Compound 22, [1′-[(E)-3-(2,4-dimethylphenyl)allyl]-5-(4-fluorophenyl)sulfanyl-spiro[indoline-3,4′-piperidine]-1-yl]-(2-methyl-4-pyridyl)methanone]	≤ 50 µM
O=C(c1ccnc(Cl)c1)N1CC2(CCN(C/C=C/c3ccc(Cl)c(Cl)c3)CC2)c2cc(Sc3ccc(F)cc3)ccc21 [Compound 23, (2-chloro-4-pyridyl)-[1′-[(E)-3-(3,4-dichlorophenyl)allyl]-5-(4-fluorophenyl)sulfanyl-spiro[indoline-3,4′-piperidine]-1-yl]methanone]	≤ 50 µM
Cc1cc(C(=O)N2CC3(CCN(C/C=C/c4ccc(Cl)c(Cl)c4)CC3)c3cc(Sc4ccc(F)cc4)ccc32)cc(Cl)n1 [Compound 24, (2-chloro-6-methyl-4-pyridyl)-[1′-[(E)-3-(3,4-dichlorophenyl)allyl]-5-(4-fluorophenyl)sulfanyl-spiro[indoline-3,4′-piperidine]-1-yl]methanone]	≤ 50 µM
Cc1cc(C(=O)N2CC3(CCN(C/C=C/c4ccc(Cl)c(Cl)c4)CC3)c3cc(Sc4ccc(F)cc4)ccc32)ccn1 [Compound 25, [1′-[(E)-3-(3,4-dichlorophenyl)allyl]-5-(4-fluorophenyl)sulfanyl-spiro[indoline-3,4′-piperidine]-1-yl]-(2-methyl-4-pyridyl)methanone]	≤ 50 µM
O=C(c1ccnc(Cl)c1)N1CC2(CCN(C/C=C/c3ccc(Cl)cc3)CC2)c2cc(Sc3ccc(F)cc3)ccc21 [Compound 26, [1′-[(E)-3-(4-chlorophenyl)allyl]-5-(4-fluorophenyl)sulfanyl-spiro[indoline-3,4′-piperidine]-1-yl]-(2-chloro-4-pyridyl)methanone]	≤ 50 µM
Cc1cc(C(=O)N2CC3(CCN(C/C=C/c4ccc(Cl)cc4)CC3)c3cc(Sc4ccc(F)cc4)ccc32)cc(Cl)n1 [Compound 27, (2-chloro-6-methyl-4-pyridyl)-[1′-[(E)-3-(4-chlorophenyl)allyl]-5-(4-fluorophenyl)sulfanyl-spiro[indoline-3,4′-piperidine]-1-yl]methanone]	≤ 50 µM
Cc1cc(C(=O)N2CC3(CCN(C/C=C/c4ccc(Cl)cc4)CC3)c3cc(Sc4ccc(F)cc4)ccc32)ccn1 [Compound 28, [1′-[(E)-3-(4-chlorophenyl)allyl]-5-(4-fluorophenyl)sulfanyl-spiro[indoline-3,4′-piperidine]-1-yl]-(2-methyl-4-pyridyl)methanone]	≤ 50 µM
O=C(c1ccnc(Cl)c1)N1CC2(CCN(C/C=C/c3ccc(Cl)cc3Cl)CC2)c2cc(Sc3ccc(F)cc3)ccc21 [Compound 29, (2-chloro-4-pyridyl)-[1′-[(E)-3-(2,4-dichlorophenyl)allyl]-5-(4-fluorophenyl)sulfanyl-spiro[indoline-3,4′-piperidine]-1-yl]methanone]	≤ 50 µM
Cc1cc(C(=O)N2CC3(CCN(C/C=C/c4ccc(Cl)cc4Cl)CC3)c3cc(Sc4ccc(F)cc4)ccc32)cc(Cl)n1 [Compound 30, (2-chloro-6-methyl-4-pyridyl)-[1′-[(E)-3-(2,4-dichlorophenyl)allyl]-5-(4-fluorophenyl)sulfanyl-spiro[indoline-3,4′-piperidine]-1-yl]methanone]	≤ 50 µM
Cc1cc(C(=O)N2CC3(CCN(C/C=C/c4ccc(Cl)cc4Cl)CC3)c3cc(Sc4ccc(F)cc4)ccc32)ccn1 [Compound 31, [1′-[(E)-3-(2,4-dichlorophenyl)allyl]-5-(4-fluorophenyl)sulfanyl-spiro[indoline-3,4′-piperidine]-1-yl]-(2-methyl-4-pyridyl)methanone]	≤ 50 µM
O=C(c1ccnc(Cl)c1)N1CC2(CCN(C/C=C/c3ccc(F)c(F)c3)CC2)c2cc(Sc3ccc(F)cc3)ccc21 [Compound 32, (2-chloro-4-pyridyl)-[1′-[(E)-3-(3,4-difluorophenyl)allyl]-5-(4-fluorophenyl)sulfanyl-spiro[indoline-3,4′-piperidine]-1-yl]methanone]	≤ 50 µM
Cc1cc(C(=O)N2CC3(CCN(C/C=C/c4ccc(F)c(F)c4)CC3)c3cc(Sc4ccc(F)cc4)ccc32)cc(Cl)n1 [Compound 33, (2-chloro-6-methyl-4-pyridyl)-[1′-[(E)-3-(3,4-difluorophenyl)allyl]-5-(4-fluorophenyl)sulfanyl-spiro[indoline-3,4′-piperidine]-1-yl]methanone]	≤ 50 µM
Cc1cc(C(=O)N2CC3(CCN(C/C=C/c4ccc(F)c(F)c4)CC3)c3cc(Sc4ccc(F)cc4)ccc32)ccn1 [Compound 34, [1′-[(E)-3-(3,4-difluorophenyl)allyl]-5-(4-fluorophenyl)sulfanyl-spiro[indoline-3,4′-piperidine]-1-yl]-(2-methyl-4-pyridyl)methanone]	≤ 50 µM
O=C(c1ccnc(Cl)c1)N1CC2(CCN(C/C=C/c3ccc(F)cc3)CC2)c2cc(Sc3ccc(F)cc3)ccc21 [Compound 35, (2-chloro-4-pyridyl)-[1′-[(E)-3-(4-fluorophenyl)allyl]-5-(4-fluorophenyl)sulfanyl-spiro[indoline-3,4′-piperidine]-1-yl]methanone]	≤ 50 µM
Cc1cc(C(=O)N2CC3(CCN(C/C=C/c4ccc(F)cc4)CC3)c3cc(Sc4ccc(F)cc4)ccc32)cc(Cl)n1 [Compound 36, (2-chloro-6-methyl-4-pyridyl)-[1′-[(E)-3-(4-fluorophenyl)allyl]-5-(4-fluorophenyl)sulfanyl-spiro[indoline-3,4′-piperidine]-1-yl]methanone]	≤ 50 µM

Same assay, conditions: read-out: minimum effective concentration (MEC)

SMILES	minimal effective concentration
O=C(c1ccnc(Cl)c1)N1CC2(CCN(C/C=C/c3ccccc3)CC2)c2cc(Sc3ccc(F)cc3)ccc21 [Compound 11, (2-chloro-4-pyridyl)-[1′-[(E)-cinnamyl]-5-(4-fluorophenyl)sulfanyl-spiro[indoline-3,4′-piperidine]-1-yl]methanone]	≤ 50 µM
Cc1cc(C(=O)N2CC3(CCN(C/C=C/c4ccccc4)CC3)c3cc(Sc4ccc(F)cc4)ccc32)cc(Cl)n1 [Compound 12, (2-chloro-6-methyl-4-pyridyl)-[1′-[(E) -cinnamyl]-5-(4-fluorophenyl)sulfanyl-spiro[indoline-3,4′-piperidine]-1-yl]methanone]	≤ 50 µM
Cc1cc(C(=O)N2CC3(CCN(C/C=C/c4ccccc4)CC3)c3cc(Sc4ccc(F)cc4)ccc32)ccn1 [Compound 13, [1′-[(E)-cinnamyl]-5-(4-fluorophenyl)sulfanyl-spiro[indoline-3,4′-piperidine]-1-yl]-(2-methyl-4-pyridyl)methanone]	≤ 50 µM

From patent US9096599B2, “Spiroindoline compounds” (Intervet Inc., priority 2011, dated 2015)
